How the values were obtained:
Type in all cases: physicochemical
[1] = Luminescence of heated DiI and BNF-DiI suspensions and supernate; settings: excited at 530 nm
Experimental: A suspension of DiI of concentration 5.4 μM and pH 7 is heated at various temperatures lying between 20 and 90° C. for 30 minutes using a dry heating bath. […] When a suspension containing BNF-DiI mixed in water at a concentration of 80 μg/mL in iron oxide is heated at temperatures lying between 20 and 90° C. using a dry heating bath, the behavior is different from that observed with DiI alone.
In order to determine if the luminescence variation of the BNF-DiI is due to the dissociation of DiI from the BNF, the maximum intensity of luminescence of the supernate of BNF-DiI and DiI alone, excited at 530 nm, were measured for suspensions containing BNF-DiI or DiI alone heated at different temperatures between 20 and 90° C. for a period of 0 to 30 minutes.

[2] = Fluorescence lifetime by the frequency method; settings: excitation 445 nm, MCR400 5 mg/mL in iron oxide, rhodamine B 5 μM
Experimental: Life time experiments were carried out using the frequency method. The set-up uses a modulated laser diode as excitation source, a confocal fluorescence spectroscope, a control unit for intensifying images and a camera, frequency generators and a spectrograph controller. The modulation frequency has been varied between 30 and 180 MHz. The excitation wavelength is 445 nm. The laser light is modulated by a radio frequency signal. An interference filter suppresses parasitic fluorescence from the laser diode and a high pass filter is placed in the detection path to decrease scattering. A volume of 1 mL of a suspension of MCR400 at 5 mg/mL in iron oxide and rhodamine B at a concentration of 5 μM was placed in a dry heating bath for 5 minutes to heat the suspensions at 25° C. and at 45° C. 10 μl of a suspension of MCR400 at 5 mg/ml in iron oxide and rhodamine B at a concentration of 5 μM were deposited on a slide and then placed in front of an objective ×40 to measure the fluorescence lifetime of each suspension.

[3] = Luminescence as a function of pH (pH 2 to 12), suspension, supernate and rhodamine B alone; settings: 125 μM, excited at 550 nm
Experimental: A suspension of MCR400 at 400 μg/mL in iron oxide and a 125 μM solution of rhodamine B were mixed with solutions of hydrochloric acid or with solutions of sodium hydroxide at concentrations ranging from 0.1 to 12 M to adjust the pH to values between 2 and 12. The samples containing the MCR400 suspensions thus treated are then placed against a magnet of 0.6 T for 12 hours at 4° C. and the supernate of the treated MCR400 suspensions is removed. The maximum luminescence intensity of the supernate of the MCR400 suspension, excited at 550 nm, decreases from 140 a.u. at pH 2 down to 20 a.u. at pH 12. On the other hand, the maximum luminescence intensity of rhodamine B alone, excited at 550 nm, increases from 440 a.u. up to 580 a.u. […] In contrast, for 2<pH<4, the emission wavelengths of rhodamine B alone, MCR400 and the supernate of MCR400, are similar, lying between 580 nm and 584 nm. These behaviors could be explained by the association of rhodamine B with magnetosomes for pH>4 and the dissociation of rhodamine B from magnetosomes for pH<4.

[4] = Luminescence after irradiation with a faxitron irradiator (irradiation probe); settings: 0 to 1350 Gy, 125 μM rhodamine B, pH 7, 25° C., excited at 550 nm, measured at 578 nm
Experimental: Three suspensions are maintained at pH 7 and at a temperature of 25° C., containing either 400 μg/mL in iron oxide of MCR400, 125 μM of rhodamine B, or 400 μg/mL in iron oxide of MC mixed with 125 μM of rhodamine B. These suspensions are irradiated with a faxitron irradiator dosimeter (160 kV, 6.3 mA without filter, 67.5 Gy/min). The irradiation doses are between 0 and 1350 Gy. […] In contrast, when the MCR400 suspension is irradiated, the luminescence of the supernate of this suspension, excited at 550 nm and measured at 576 nm, increases sharply from 250 a.u. in the absence of irradiation to 600-950 a.u. in the presence of an irradiation larger than 250 Gy.

[5] = Luminescence of heated rhodamine B solution and MCR400 suspension (temperature probe); settings: temperature increased from 20° C. to 80° C., 5 μM, pH 7, heated 30 minutes, excited at 405 nm
Experimental: A solution of rhodamine B of concentration 5 μM and pH 7 contained in a volume of 800 μL is excited at 405 nm and heated at different temperatures for 30 minutes using a dry heating bath. When the temperature of this solution increases from 20° C. to 80° C., the wavelength corresponding to the maximum luminescence of rhodamine B remains relatively unchanged while the maximum luminescence intensity of rhodamine B decreases strongly by 73% in agreement with previously published results (Journal of Luminescence, Vol. 27, p. 455 (1982)). A suspension of MCR400 at a concentration of 250 μg/mL in iron oxide and pH 7 contained in a volume of 800 μl is excited at 405 nm and heated at different temperatures for 30 minutes using a dry hot-water heating bath. MCR400 excited at 405 nm produce maximum luminescence intensity at 569 nm. The behavior of the MCR400 is different from that of rhodamine B. Indeed, between 20° C. and 80° C., the maximum of the luminescence peak is observed at 569 nm and the luminescence intensity of the MCR400 increases sharply by 66%. The luminescence intensity of rhodamine B would initially be quenched when rhodamine B is associated with magnetosomes and would increase with the dissociation of rhodamine B from magnetosomes under the effect of a temperature increase.

fluorescence lifetime ([2]; 25° C.) [ns]	fluorescence lifetime ([2]; 45° C.) [ns]	maximum luminescence intensity of the solution ([3]; end of the pH increase (pH range 2 to 12)) [a.u.]	maximum luminescence intensity of the solution ([3]; start of the pH increase (pH range 2 to 12)) [a.u.]	luminescence on irradiation (solution, or supernate of the mixture) [4]	decrease of maximum luminescence intensity [5] [%]	Compound	maximum luminescence intensity as a function of heating temperature ([1]; heated 30 minutes, DiI 5.4 μM pH 7, BNF-DiI 80 μg/mL in iron oxide)	luminescence intensity of the substance alone on heating ([1]; heated between 20 and 90° C. for 0 to 30 minutes)
–	–	–	–	–	–	CCCCCCCCCCCCCCCCCCN1C(=CC=CC2=[N+](CCCCCCCCCCCCCCCCCC)c3ccccc3C2(C)C)C(C)(C)c2ccccc21.[O-][Cl+3]([O-])([O-])[O-] [DiI, 1,1′-Dioctadecyl-3,3,3′,3′-tetramethyl-indocarbocyanine perchlorate]	increases between 20 and 60 °C and then decreases between 60 and 100 °C	does not significantly decrease
1.6	1.3	580	440	do not vary or decrease	73	CCN(CC)c1ccc2c(-c3ccccc3C(=O)O)c3ccc(=[N+](CC)CC)cc-3oc2c1.[Cl-] [rhodamine B]	–	–

Reference: US20210261857A1, “PARTICLE COMPRISING AT LEAST ONE FERRIMAGNETIC OR FERROMAGNETIC IRON OXIDE NANOPARTICLE ASSOCIATED WITH AT LEAST ONE COMPOUND FOR MEDICAL OR COSMETIC USE” (NANOBACTERIE, priority 2015, published 2021)
